Results: patent publication US6046186A, “Estrone sulfamate inhibitors of estrone sulfatase, and associated pharmaceutical compositions and methods of use” (SRI International, priority 1997, dated 2000)
Where two headings read alike, the source gives them in different places.

Key:
Estrone Sulfatase = target: T1, Estrone Sulfatase (Homo sapiens, UniProt P08842); experiment: Effects of Inhibitors on Estrone Sulfatase Activity in MCF-7 Cells; assay type: cell-based
T1 construct: endogenous in cells; host or cells: MCF-7 human breast cancer cells (American Type Culture Collection)
T1 sequence (P08842 22-583): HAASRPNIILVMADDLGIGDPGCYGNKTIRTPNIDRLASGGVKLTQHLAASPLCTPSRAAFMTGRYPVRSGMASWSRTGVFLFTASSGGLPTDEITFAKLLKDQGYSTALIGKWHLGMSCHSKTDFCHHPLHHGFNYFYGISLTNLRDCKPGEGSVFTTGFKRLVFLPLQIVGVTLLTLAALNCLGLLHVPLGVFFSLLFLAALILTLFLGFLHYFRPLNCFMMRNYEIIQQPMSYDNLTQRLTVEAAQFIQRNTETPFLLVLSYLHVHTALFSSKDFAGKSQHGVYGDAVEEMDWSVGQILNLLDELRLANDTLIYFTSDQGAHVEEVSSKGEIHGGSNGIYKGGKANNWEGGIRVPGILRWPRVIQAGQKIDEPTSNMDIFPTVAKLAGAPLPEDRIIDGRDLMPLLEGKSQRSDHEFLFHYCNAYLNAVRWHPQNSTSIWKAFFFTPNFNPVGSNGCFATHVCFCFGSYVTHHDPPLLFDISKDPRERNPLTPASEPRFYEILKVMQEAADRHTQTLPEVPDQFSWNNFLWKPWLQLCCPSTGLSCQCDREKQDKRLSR
Text: A. Effects of Inhibitors on Estrone Sulfatase Activity in MCF-7 Cells
Reagents: MCF-7 human breast cancer cell line was supplied by the American Type Culture Collection, Rockville, MD. Eagle's minimum essential medium (MEM) and fetal calf serum (FCS) were purchased from Sigma Chemical Company, St. Louis, Mo. [4-^14 C]Estrone, [6,7-^3 H]estradiol and [6,7-^3 H](N)estrone sulfate were obtained from New England Nuclear Research Products, Boston, Mass.
Procedure: The method of Duncan et al., Cancer Res. 53:298-303 (1993) was employed. MCF-7 cells were seeded in 60 mm×15 mm culture dishes at 1×10^5 cells/dish and maintained in 4.0 ml of MEM containing 2 mM glutamine and 5% FCS. The cells were incubated at 37° C. in an atmosphere of 5% CO2 /95% air and 100% humidity, with the medium changed every third day. When the cells reached 80% confluency, the intact monolayers were washed once with Earl's balanced salt solution and incubated in 4.0 ml of serum and phenol re-free MEM containing either the substrate (^3 H-estrone sulfate, 7 pmol, 9×10^5 dpm) and inhibitor dissolved in ethanol, or ethanol alone. The fmal ethanol concentration was always below 1%. The incubation continued under the regular conditions for 24 h. At the end of 24 h, 2.0 ml of medium was transferred into separate tubes containing 7×10^3 dpm of ^14 C-estrone. The mixture was vortexed vigorously for 60 s with 5 ml of toluene. After phase separation, 2.0 ml of the organic phase was transferred into a counting vial for scintillation counting. The amount of estrone sulfate hydrolyzed was calculated on the basis of ^3 H counts obtained, with the added ^14 C-estrone counts used to correct for recovery through the extraction procedure.
The cells remaining in each culture dish were washed once with saline and then scraped with 1.0 ml of 0.5 N NaOH into 10×75 mm tubes. The cell pellets in each tube was incubated at 50° C. for 20 min to ensure that digestion was complete and all proteins had became soluble. An aliquot was then taken for protein determination by Lowry's method (Lowry et al., J. Biol. Chem. 193:265-275 (1951)).
The percentage of inhibition was determined by evaluating the quantity of estrone sulfate hydrolyzed with the inhibitor relative to that without the inhibitor.
As a general practice, all available inhibitors were first tested at 100 μM; the ones showing inhibitory effects at that concentration were tested again at various concentrations to obtain the IC50 values.

uterus = experiment: Uterotrophic assay (estrogenic activity from uterine weights); assay type: in vivo, Sprague Dawley rats; set-up: scale not given here; conditions: female rats, test compound alone once daily for 7 days, s.c. or oral gavage; uterine weight vs vehicle control
Text: B. Uterotrophic and antiuterotrophic assays
Sprague Dawley rates are obtained from Simmonsen Laboratories, Gilroy, Calif. Estradiol benzoate may be purchased from Sigma Chemical Co., St. Louis, Mo.
The procedure of Wakeling et al., Endocrinology 99:447453 (1983) is followed. Female Sprague Dawley rats weighing 40-50 grams are used for the experiment. In general, animals are quarantined for 3 days after arrival at the experimental site.
Rats are initially weighed and randomly divided into groups with 5 animals in each group. For the uterotrophic assay, animals are dosed once daily with various doses of test compounds in 0.1 or 1.0 ml of sterile saline via subcutaneous injection or oral gavage, respectively. For the antiuterotrophic assay, animals are dosed once daily with the same doses indicated above plus 0.5 μg/rat of estradiol benzoate alone.
The animals are treated for 7 days. On day 8, animals are weighed and then sacrificed. The uterus of each animal is removed immediately after death and weighed; fat materials are trimmed off prior to weighing.
A comparison of uterine weights from the groups receiving test compound alone with those of the vehicle control group gives the estrogenic activity. Antiestrogenic activity is obtained by comparing the uterine weights from the groups receiving test compound plus estradiol with those of the estradiol control group.

[1] = intact MCF-7 human breast cancer cells, 3H-estrone sulfate substrate, 24 h, 37° C., read-out: Estrone Sulfatase Inhibitory Activity IC50

C#CC1=CC[C@H]2[C@@H]3CCc4cc(OS(N)(=O)=O)ccc4[C@H]3CC[C@]12C [Compound 5, 19-Norpregna-1,3,5(10),16-tetraen-20-yne-3-O-sulfamate]
IC50 (Estrone Sulfatase; [1]): 0.25 nM
Estrogenic Activity (uterus): 0.40

CC(=O)C1=CC[C@H]2[C@@H]3CCc4cc(OS(N)(=O)=O)ccc4[C@H]3CC[C@]12C [Compound 7, 19-Norpregna-1,3,5(10),16-tetraen-20-one-3-O-sulfamate]
IC50 (Estrone Sulfatase; [1]): 0.021 nM
Estrogenic Activity (uterus): 0.66

CC(=O)[C@H]1CC[C@H]2[C@@H]3CCc4cc(OS(N)(=O)=O)ccc4[C@H]3CC[C@]12C [Compound 10, 19-Norpregna-1,3,5(10)trien-20-one-3-O-sulfamate]
IC50 (Estrone Sulfatase; [1]): 2 nM
Estrogenic Activity (uterus): 0

C/C=C1/CC[C@H]2[C@@H]3CCc4cc(OS(N)(=O)=O)ccc4[C@H]3CC[C@]12C [Compound 13, [17(20)Z]-19-Norpregna-1,3,5(10),17(20)-tetraene-3-O-sulfamate]
IC50 (Estrone Sulfatase; [1]): 0.08 nM
Estrogenic Activity (uterus): 0.05

CC/C=C1/CC[C@H]2[C@@H]3CCc4cc(OS(N)(=O)=O)ccc4[C@H]3CC[C@]12C [Compound 15, [17(20)Z]-Propylideneestra-1,3,5(10)-triene-3-O-sulfamate]
IC50 (Estrone Sulfatase; [1]): 0.038 nM
Estrogenic Activity (uterus): 0.30

CCC/C=C1/CC[C@H]2[C@@H]3CCc4cc(OS(N)(=O)=O)ccc4[C@H]3CC[C@]12C [Compound 17, [17(20)Z]-19,21-Dinorchola-1,3,5(10)17(20)-tetraene-3-O-sulfamate]
IC50 (Estrone Sulfatase; [1]): 0.011 nM
Estrogenic Activity (uterus): 0.55

CC[C@H]1CC[C@H]2[C@@H]3CCc4cc(OS(N)(=O)=O)ccc4[C@H]3CC[C@]12C [Compound 19, 19-Norpregna-1,3,5(10)-triene-3-O-sulfamate]
IC50 (Estrone Sulfatase; [1]): 0.02 nM
Estrogenic Activity (uterus): 0.54

CCC[C@H]1CC[C@H]2[C@@H]3CCc4cc(OS(N)(=O)=O)ccc4[C@H]3CC[C@]12C [Compound 21, 17β-Propylestra-1,3,5(10)-triene-3-O-sulfamate]
IC50 (Estrone Sulfatase; [1]): 0.034 nM
Estrogenic Activity (uterus): 0

CCCC[C@H]1CC[C@H]2[C@@H]3CCc4cc(OS(N)(=O)=O)ccc4[C@H]3CC[C@]12C [Compound 23, 19,21-Dinorchola-1,3,5(10)-triene-3-O-sulfamate]
IC50 (Estrone Sulfatase; [1]): 0.096 nM
Estrogenic Activity (uterus): 0.02

CC/C=C1\CC[C@H]2[C@@H]3CCc4cc(OS(N)(=O)=O)ccc4[C@H]3CC[C@]12C [Compound 28, [17(20)E]-Propylideneestra-1,3,5(10)-triene-3-O-sulfamate]
IC50 (Estrone Sulfatase; [1]): 0.027 nM
Estrogenic Activity (uterus): 0.20

CCOC(=O)/C=C1/CC[C@H]2[C@@H]3CCc4cc(OS(N)(=O)=O)ccc4[C@H]3CC[C@]12C [Compound 32, Ethyl 3-Sulfamoyloxy-[17(20)Z]-19-norpregna-1,3,5(10),17(20)-tetraen-21-oate]
IC50 (Estrone Sulfatase; [1]): 2.7 nM
Estrogenic Activity (uterus): 0

CCOC(=O)/C=C1\CC[C@H]2[C@@H]3CCc4cc(OS(N)(=O)=O)ccc4[C@H]3CC[C@]12C [Compound 34, Ethyl 3-Sulfamoyloxy-[17(20)E]-19-norpregna-1,3,5(10),17(20)-tetraen-21-oate]
IC50 (Estrone Sulfatase; [1]): 0.27 nM
Estrogenic Activity (uterus): 0

C[C@]12CC[C@@H]3c4ccc(OS(N)(=O)=O)cc4CC[C@H]3[C@@H]1CCC2=C(C#N)C#N [Compound 36, 20-Cyano-19-norpregna-1,3,5(10),17(20)-tetraene-21-nitrile-3-O-sulfamate]
IC50 (Estrone Sulfatase; [1]): 0.09 nM
Estrogenic Activity (uterus): 0.44

CN(C)CCOC/C=C1\CC[C@H]2[C@@H]3CCc4cc(OS(N)(=O)=O)ccc4[C@H]3CC[C@]12C [Compound 39, 21-(2'-N,N-Dimethylaminoethoxy)-[17(20)E]-19-norpregna-1,3,5(10),17(20)-tetraene-3-O-sulfamate]
IC50 (Estrone Sulfatase; [1]): 34 nM
Estrogenic Activity (uterus): 0

CN(C)CCO[C@H]1CC[C@H]2[C@@H]3CCc4cc(OS(N)(=O)=O)ccc4[C@H]3CC[C@]12C [Compound 44, 17β-(2'-N,N-Dimethylaminoethoxy)estra-1,3,5(10)-triene-3-O-sulfamate]
IC50 (Estrone Sulfatase; [1]): 24 nM
Estrogenic Activity (uterus): 0

CN(C)CCCO[C@H]1CC[C@H]2[C@@H]3CCc4cc(OS(N)(=O)=O)ccc4[C@H]3CC[C@]12C [Compound 47, 17β-(3'-N,N-Dimethylaminopropoxy)estra-1,3,5(10)-triene-3-O-sulfamate]
IC50 (Estrone Sulfatase; [1]): 23 nM
Estrogenic Activity (uterus): 0.27

CC(C)(C)[Si](C)(C)O[C@@H]1CC[C@H]2[C@@H]3CCc4cc(OS(N)(=O)=O)ccc4[C@H]3CC[C@]12C [Compound 52, 17α-tert-Butyldimethylsilyloxyestra-1,3,5(10)-triene-3-O-sulfamate]
IC50 (Estrone Sulfatase): 0.31 nM
Estrogenic Activity (uterus): 0

CN(C)CCO[C@@H]1CC[C@H]2[C@@H]3CCc4cc(OS(N)(=O)=O)ccc4[C@H]3CC[C@]12C [Compound 55, 17α-(2'-N,N-Dimethylaminoethoxy)estra-1,3,5(10)-triene-3-O-sulfamate]
IC50 (Estrone Sulfatase; [1]): 26 nM
Estrogenic Activity (uterus): 0

CC(=O)O[C@H]1CC[C@H]2[C@@H]3CCc4cc(OS(N)(=O)=O)c(C#N)cc4[C@H]3CC[C@]12C [Compound 59, 2-Cyanoestra-1,3,5(10)-trien-17β-ol-3-O-sulfamate 17β-O-acetate]
IC50 (Estrone Sulfatase; [1]): 0.3 nM
Estrogenic Activity (uterus): 0

COC(=O)c1cc2c(cc1OS(N)(=O)=O)CC[C@@H]1[C@@H]2CC[C@]2(C)C(=O)CC[C@@H]12 [Compound 65, 2-Methoxycarbonylestra-1,3,5(10)-trien-17-one-3-O-sulfamate]
Estrogenic Activity (uterus): 0

COc1cc2c(cc1OS(N)(=O)=O)CC[C@@H]1[C@@H]2CC[C@]2(C)C(=O)CC[C@@H]12 [Compound 67, 2-Methoxyestra-1,3,5(10)-trien-17-one-3-O-sulfamate]
IC50 (Estrone Sulfatase): 0.016 nM
Estrogenic Activity (uterus): 0

C/C=C1/CC[C@H]2[C@@H]3CCc4cc(OS(N)(=O)=O)c(OC)cc4[C@H]3CC[C@]12C [Compound 69, 2-Methoxy-[17(20)Z]-19-norpregna-1,3,5(10),17(20)-tetraene-3-O-sulfamate]
IC50 (Estrone Sulfatase; [1]): 2.5 nM
Estrogenic Activity (uterus): 0

CC[C@H]1CC[C@H]2[C@@H]3CCc4cc(OS(N)(=O)=O)c(OC)cc4[C@H]3CC[C@]12C [Compound 71, 2-Methoxy-19-norpregna-1,3,5(10)-triene-3-O-sulfamate]
IC50 (Estrone Sulfatase; [1]): 1.5 nM
Estrogenic Activity (uterus): 0
